Reference: patent US10051857B2, “Formulation component” (SYNGENTA LIMITED, priority 2011, dated 2018)

Legend:
Type in all cases: in vivo
[1] = tested on: four weed species (CHEAL, ABUTH, SETVI, XANST); test: Glasshouse adjuvant test with fomesafen (Example 5), mean across species; details: fomesafen 60 or 120 g/ha, adjuvant 0.2% v/v or none
Experimental: Compound 1 (N, N-diethyl-3-methylbenzamide) was tested in a glasshouse against four weed species using the herbicide fomesafen. An agrochemical composition was prepared containing 0.2% v/v of the adjuvant in a track sprayer and was applied at a volume of 200 liters per hectare. Fomesafen was applied at either 60 or 120 grams of pesticide per hectare on each of the weed species. The weed species and their growth stage at spraying were Chenopodium album (CHEAL; growth stage 13/14), Abutilon theophrasti (ABUTH; growth stage 12), Setaria viridis (SETVI; growth stage 13), and Xanthium strumarium (XANST; growth stage 12).
(§1) Each spray test was replicated three times. The efficacy of the herbicide was assessed visually and expressed as a percentage of the leaf area killed. Samples were assessed at time periods of 7, 14 and 21 days following application. The results shown in Table 5 below are mean averages over the two rates of fomesafen, three replicates and the three assessment timings, and are compared to the efficacy of fomesafen in the absence of adjuvant.

[2] = tested on: Alopecurus myosuroides (ALOMY); test: Glasshouse adjuvant test with pinoxaden (Example 8); details: pinoxaden 7.5 or 15 g/ha, adjuvant 0.2% v/v or none, 200 l/ha; growth stage 13; mean over two rates, three replicates, 14 and 21 days
Experimental: (§2) The adjuvant shown in example 1 was tested in a glasshouse against four weed species in combination with the herbicide pinoxaden. A 20% w/w stock emulsion of compound 1 was prepared additionally containing 2% w/w Gohsenol® GL03 and 2% w/w Pluronic® PE10500 as surfactants. Using this, an agrochemical composition was prepared containing 0.2% v/v of the adjuvant in a track sprayer and was applied at a volume of 200 liters per hectare. Pinoxaden was applied at either 7.5 or 15 grams of pesticide per hectare on each of the weed species. The weed species and their growth stage at spraying were Alopecurus myosuroides (ALOMY; growth stage 13), Avena fatua (AVEFA; growth stage 12); Lolium perenne (LOLPE; growth stage 13), Setaria viridis (SETVI; growth stage 14).
as §1, with “of” for “of 7,”, “Table 8” for “Table 5 below”, “of pinoxaden,” for “of fomesafen,”, “the two” for “the three”, “of pinoxaden” for “of fomesafen”

[3] = tested on: Lolium perenne (LOLPE); test: as above; details: pinoxaden 7.5 or 15 g/ha, adjuvant 0.2% v/v or none, 200 l/ha; growth stage 13; mean over two rates, three replicates, 14 and 21 days
Experimental: as §2
as §1, with “of” for “of 7,”, “Table 8” for “Table 5 below”, “of pinoxaden,” for “of fomesafen,”, “the two” for “the three”, “of pinoxaden” for “of fomesafen”

[4] = tested on: Setaria viridis (SETVI); test: as above; details: pinoxaden 7.5 or 15 g/ha, adjuvant 0.2% v/v or none, 200 l/ha; growth stage 14; mean over two rates, three replicates, 14 and 21 days
Experimental: as §2
as §1, with “of” for “of 7,”, “Table 8” for “Table 5 below”, “of pinoxaden,” for “of fomesafen,”, “the two” for “the three”, “of pinoxaden” for “of fomesafen”

[5] = tested on: Chenopodium album (CHEAL); test: Glasshouse adjuvant test with nicosulfuron (Example 7); details: nicosulfuron 30 or 60 g/ha, adjuvant 0.2% v/v or none, 200 l/ha; growth stage 14; mean over two rates, three replicates, 14 and 21 days
Experimental: (§3) Compound 1 was tested in a glasshouse against four weed species using the herbicide nicosulfuron. A 20% w/w stock emulsion of compound 1 was prepared additionally containing 2% w/w Gohsenol® GL03 and 2% w/w Pluronic® PE10500 as surfactants. Using this, an agrochemical composition was prepared containing 0.2% v/v of the adjuvant in a track sprayer and was applied at a volume of 200 liters per hectare. Nicosulfuron was applied at either 30 or 60 grams of pesticide per hectare on each of the weed species. The weed species and their growth stage at spraying were Abutilon theophrasti (ABUTH; growth stage 13), Chenopodium album (CHEAL; growth stage 14), Digitaria sanguinalis (DIGSA; growth stage 13), and Setaria viridis (SETVI; growth stage 13).
(§4) Each spray test replicated three times. The efficacy of the herbicide was assessed visually and expressed as a percentage of the leaf area killed. Samples were assessed at time periods of 14 and 21 days following application. The results shown in Table 7 below are mean averages over the two rates of nicosulfuron, three replicates and the two assessment timings, and are compared to the efficacy of nicosulfuron in the absence of an adjuvant.

[6] = tested on: Abutilon theophrasti (ABUTH); test: as above; details: nicosulfuron 30 or 60 g/ha, adjuvant 0.2% v/v or none, 200 l/ha; growth stage 13; mean over two rates, three replicates, 14 and 21 days
Experimental: as §3, §4

[7] = tested on: Digitaria sanguinalis (DIGSA); test: as above; details: nicosulfuron 30 or 60 g/ha, adjuvant 0.2% v/v or none, 200 l/ha; growth stage 13; mean over two rates, three replicates, 14 and 21 days
Experimental: as §3, §4

[8] = tested on: Setaria viridis (SETVI); test: as above; details: nicosulfuron 30 or 60 g/ha, adjuvant 0.2% v/v or none, 200 l/ha; growth stage 13; mean over two rates, three replicates, 14 and 21 days
Experimental: as §3, §4

## CCN(CC)C(=O)c1cccc(C)c1 [Compound 1, N, N-diethyl-3-methylbenzamide]
[1]
  Mean percentage kill, Mean across species: 42.6%
[2]
  Mean percentage kill ALOMY: 22.5%
[3]
  Mean percentage kill LOLPE: 20.8%
[4]
  Mean percentage kill SETVI: 15.8%
[5]
  Mean percentage kill CHEAL: 63.8%
[6]
  Mean percentage kill ABUTH: 72.9%
[7]
  Mean percentage kill DIGSA: 89.4%
[8]
  Mean percentage kill SETVI: 93.4%
